Reference: ChEMBL document CHEMBL5316326, “Discovery of a Novel Covalent EZH2 Inhibitor Based on Tazemetostat Scaffold for the Treatment of Ovarian Cancer” (J Med Chem, 2023)
pIC50: −log10 of the molar value. Calls of active or inactive are those of the source. The calls are words filed in the database; no cut-off is given here.

Key:
MCF7 = experiment: Antiproliferative activity against human MCF7 cells assessed as inhibition of cell proliferation incubated for 72 hrs by MTT assay; type: functional, cell-based; conditions: MCF7, 72 h
ES-2 = experiment: Antiproliferative activity against human ES2 cells assessed as inhibition of cell proliferation incubated for 72 hrs by MTT assay; type: functional, cell-based; conditions: ES-2, 72 h
4T1 = experiment: Antiproliferative activity against mouse 4T1 cells assessed as inhibition of cell proliferation incubated for 72 hrs by MTT assay; type: functional, cell-based; conditions: 4T1, 72 h
A2780 [1] = experiment: Antiproliferative activity against human A2780 cells assessed as inhibition of cell proliferation incubated for 72 hrs by MTT assay; type: functional, cell-based; conditions: A2780, 72 h
SK-OV-3 = experiment: Antiproliferative activity against human SK-OV-3 cells assessed as inhibition of cell proliferation incubated for 72 hrs by MTT assay; type: functional, cell-based; conditions: SK-OV-3, 72 h
OAW-42 = experiment: Antiproliferative activity against human OAW-42 cells assessed as inhibition of cell proliferation incubated for 72 hrs by MTT assay; type: functional, cell-based; conditions: OAW-42, 72 h
OVCAR-3 = experiment: Antiproliferative activity against human OVCAR-3 cells assessed as inhibition of cell proliferation incubated for 72 hrs by MTT assay; type: functional, cell-based; conditions: OVCAR-3, 72 h
NCI-H1703 = experiment: Antiproliferative activity against human NCI-H1703 cells assessed as inhibition of cell proliferation incubated for 72 hrs by MTT assay; type: functional, cell-based; conditions: NCI-H1703, 72 h
[2] = Antiproliferative activity against human COV362 cells assessed as inhibition of cell proliferation incubated for 72 hrs by MTT assay; type: functional, cell-based; conditions: COV362, 72 h
A549 = experiment: Antiproliferative activity against human A549 cells assessed as inhibition of cell proliferation incubated for 72 hrs by MTT assay; type: functional, cell-based; conditions: A549, 72 h
SK-BR-3 = experiment: Antiproliferative activity against human SK-BR-3 cells assessed as inhibition of cell proliferation incubated for 72 hrs by MTT assay; type: functional, cell-based; conditions: SK-BR-3, 72 h
PA-1 [3] = experiment: Antiproliferative activity against human PA-1 cells assessed as inhibition of cell proliferation incubated for 72 hrs by MTT assay; type: functional, cell-based; conditions: PA-1, 72 h
HEY = experiment: Antiproliferative activity against human HEY cells assessed as inhibition of cell proliferation incubated for 72 hrs by MTT assay; type: functional, cell-based
BT-549 = experiment: Antiproliferative activity against human BT-549 cells assessed as inhibition of cell proliferation incubated for 72 hrs by MTT assay; type: functional, cell-based; conditions: BT-549, 72 h
[4] = molecular target: T1, Histone-lysine N-methyltransferase EZH2 (Homo sapiens, UniProt Q15910); experiment: Inhibition of wild type EZH2 (unknown origin) by AlphaLlSA assay
Target sequence in this assay (Q15910 whole entry): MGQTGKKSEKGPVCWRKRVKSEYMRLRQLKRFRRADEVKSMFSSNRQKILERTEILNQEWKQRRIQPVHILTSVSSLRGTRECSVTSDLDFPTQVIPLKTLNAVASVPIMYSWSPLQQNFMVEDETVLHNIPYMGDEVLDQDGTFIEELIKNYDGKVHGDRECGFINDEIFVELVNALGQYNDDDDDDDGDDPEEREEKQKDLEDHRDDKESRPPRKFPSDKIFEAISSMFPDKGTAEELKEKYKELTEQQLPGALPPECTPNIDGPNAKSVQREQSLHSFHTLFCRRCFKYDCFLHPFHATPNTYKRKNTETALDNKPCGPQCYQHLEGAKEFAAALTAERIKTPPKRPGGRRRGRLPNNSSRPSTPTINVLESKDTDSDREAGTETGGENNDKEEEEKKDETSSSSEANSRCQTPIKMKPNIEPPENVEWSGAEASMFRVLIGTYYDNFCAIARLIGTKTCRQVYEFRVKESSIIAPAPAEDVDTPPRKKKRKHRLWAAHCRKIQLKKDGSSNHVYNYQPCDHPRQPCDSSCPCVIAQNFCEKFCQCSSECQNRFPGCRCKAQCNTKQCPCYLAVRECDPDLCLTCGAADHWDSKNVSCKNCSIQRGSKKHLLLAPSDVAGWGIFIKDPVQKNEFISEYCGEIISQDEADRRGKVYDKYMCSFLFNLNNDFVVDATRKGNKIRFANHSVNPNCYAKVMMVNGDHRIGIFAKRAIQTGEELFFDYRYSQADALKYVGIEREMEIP

PA-1 [5] = experiment: Antiproliferative activity against human PA-1 cells assessed as reduction in cell viability at 10 uM incubated for 3 days followed by compound washout and measured after 4 days by microscopy analysis; type: functional, cell-based; conditions: time 3.0 day
PA-1 [6] = experiment: Antitumor activity against human PA-1 cells xenografted in BALB/C nude mouse assessed as tumor growth inhibition at 150 mg/kg,po BID for 21 days; type: functional; conditions: PA-1, 504 h, time 21 day, read-out: TGI
PA-1 [7] = experiment: Inhibition of colony formation in human PA-1 cells assessed as reduction in number of colonies at 0.25 to 10 uM incubated for 14 days with medium change every 3 days by crystal violet staining method; type: functional, cell-based; conditions: dose 0.25-10 µM, time 14.0 day
[8] = molecular target: T1, Histone-lysine N-methyltransferase EZH2; experiment: Binding affinity to wild type recombinant EZH2 (494 to 737 residues) (unknown origin) expressed in Escherichia coli assessed as adduct formation incubated for 2 hrs by LC-MS analysis
Target sequence in this assay (Q15910 whole entry, looked up): as the sequence (Q15910 whole entry) above

PA-1 [9] = experiment: Inhibition of colony formation in human PA-1 cells assessed as reduction in size of colonies at 0.25 to 10 uM incubated for 14 days with medium change every 3 days by crystal violet staining method; type: functional, cell-based; conditions: dose 0.25-10 µM, time 14.0 day
A2780 [10] = experiment: Inhibition of colony formation in human A2780 cells assessed as reduction in number of colonies at 0.25 to 10 uM incubated for 14 days with medium change every 3 days by crystal violet staining method; type: functional, cell-based; conditions: dose 0.25-10 µM, time 14.0 day
A2780 [11] = experiment: Inhibition of colony formation in human A2780 cells assessed as reduction in size of colonies at 0.25 to 10 uM incubated for 14 days with medium change every 3 days by crystal violet staining method; type: functional, cell-based; conditions: dose 0.25-10 µM, time 14.0 day
[12] = molecular target: T1, Histone-lysine N-methyltransferase EZH2; experiment: Inhibition of EZH2 methyltransferase activity in human A2780 cells assessed as reduction in H3K27me3 level incubated for 3 days by Western blot analysis; type: cell-based
Target sequence in this assay (Q15910 whole entry): as above

SMILES	pIC50 (MCF7)	pIC50 (ES-2)	pIC50 (4T1)	pIC50 (A2780 [1])	pIC50 (SK-OV-3)	pIC50 (OAW-42)	pIC50 (OVCAR-3)	pIC50 (NCI-H1703)	pIC50 [2]	pIC50 (A549)	pIC50 (SK-BR-3)	pIC50 (PA-1 [3])	pIC50 (HEY)	pIC50 (BT-549)	pIC50 [4]	further results
C=CC(=O)Nc1cccc(-c2cc(C(=O)NCc3c(C)cc(C)[nH]c3=O)c(C)c(N(CC)C3CCOCC3)c2)c1	4.20	4.41	4.51	4.80	4.38	< 4.00	< 4.00	4.43	< 4.00	4.48	4.18	4.61	4.18	4.22	8.79	
CCN(c1cc(-c2ccc(CN3CCOCC3)cc2)cc(C(=O)NCc2c(C)cc(C)[nH]c2=O)c1C)C1CCOCC1 [TAZEMETOSTAT]	< 4.00	4.10	4.53	4.33	4.05	< 4.00	< 4.00	< 4.00	< 4.00	< 4.00	4.17	4.33	< 4.00	4.24		Activity (PA-1 [5]): inactive; inhibition in vivo at 150 mg/kg (PA-1 [6]): 56.8%
CCC(=O)Nc1ccc(C)c(-c2cc(C(=O)NCc3c(C)cc(C)[nH]c3=O)c(C)c(N(CC)C3CCOCC3)c2)c1	< 4.00	4.05	< 4.00	4.22	< 4.00	< 4.00	< 4.00	4.16	< 4.00	< 4.00	< 4.00	4.11	< 4.00	< 4.00	8.52	Activity (PA-1 [5]): inactive; inhibition (PA-1 [7]): Dose-Dependent Effect; Activity [8]: inactive; inhibition (PA-1 [9]): Dose-Dependent Effect; inhibition (A2780 [10]): Dose-Dependent Effect; inhibition (A2780 [11]): Dose-Dependent Effect; pIC50 [12]: 5.33
C=CC(=O)NCc1ccc(-c2cc(C(=O)NCc3c4c(c(C)[nH]c3=O)CCCC4)c(C)c(N(CC)C3CCOCC3)c2)cc1															7.97	Activity [8]: inactive
CCOCCNC(=O)/C(C)=C/C[C@@]12OC(C)(C)C3C[C@@H](C=C4C(=O)c5c(O)c(C/C=C(\C)CCC=C(C)C)c(O)c(CC=C(C)C)c5O[C@]431)C2=O (single isomer, unassigned)															5.96	
CCC(=O)Nc1cccc(-c2cc(C(=O)NCc3c(C)cc(C)[nH]c3=O)c(C)c(N(CC)C3CCOCC3)c2)c1	< 4.00	< 4.00	4.23	4.46	< 4.00	< 4.00	< 4.00	< 4.00	< 4.00	< 4.00	< 4.00	< 4.00	< 4.00	< 4.00		
CC[C@H](C)n1cc(C)c2c(C(=O)NCc3c(C)cc(C)[nH]c3=O)cc(-c3ccc(N4CCNCC4)nc3)cc21 [GSK2816126]	4.73	4.49	4.98	4.92	4.16	4.26	4.53	< 4.00	< 4.00	4.64	4.81	4.91	< 4.00	4.63		
